Results reported in PMC9481570, “A small molecule antagonist of SMN disrupts the interaction between SMN and RNAP II” (Nature Communications, 2022).

What was measured:
[1] = target: T1, SMN Tudor domain (Homo sapiens, UniProt Q16637); experiment: Fluorescence of CCVJ-Cmpd 1 in solution on addition of SMN Tudor domain; type: binding; details: 10 μM SMN Tudor with 10 μM CCVJ-Cmpd 1, in solution
T1 construct: SMN (aa 82–147); His (N, cleaved yes); made in house; host or cells: E. coli BL21 (DE3) Codon plus RIL
T1 sequence (Q16637 82-147): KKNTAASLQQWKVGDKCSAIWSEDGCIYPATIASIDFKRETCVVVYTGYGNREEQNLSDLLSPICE
Description: Supplementary Fig. 5 Interaction between Tudor domain of SMN and CCVJ-Cmpd 1 triggers fluorescence signals. a Fluorescence signals of 10 µM SMN Tudor, 10 µM CCVJ-Cmpd 1, and mixture of 10 µM SMN Tudor with 10 µM CCVJ-Cmpd 1 were detected by fluorescence microscope (Nikon, ECLIPSE Ti-E), under the excitation of blue light. The […]
the SMN Tudor domain protein. Exposure time: 1 s. b Fluorescence signals for addition of different concentrations of the SMN Tudor domain protein to 5 µM CCVJ-Cmpd 1 detected by Infinite M1000 Pro microplate reader (Tecan) with an excitation wavelength of 440 nm and an emission wavelength of 460-600 nm. Data shown are representative of three […]

[2] = test system: mCherry-SMN cage mutant (W102); experiment: Fluorescence colocalization in U2OS cells, mCherry-SMN cage mutant; type: cell-based, human; details: 10 μM, 24 h, W102 mutated
Method: (§1) U2OS cells (ATCC, HTB-96) were plated in a 35 mm FluoroDish with a 0.17 mm coverslip bottom (World Precision Instruments, FD35-100) for 12–24 h and transfected with 1.0 μg mCherry-SMN WT (wild-type) or mutant plasmids. Media was changed 4–6 h after transfection and cells were cultured for another 24 h. 10 μM CCVJ-Cmpd 1 was added for 24 h treatment. Then the treated cells were rinsed by PBS and the media replaced with phenol-free FluoroBright DMEM (Thermo Fisher, A1896701) for analysis by using Zeiss LSM880 microscopy.

[3] = target: T1, SMN Tudor domain; experiment: ITC binding to Tudor domain of SMN; details: Supplementary Figs. 2, 4 and 11a (VP-ITC); read-out: Kd, ITC binding curve, Tudor domain of SMN
Description: The coding DNA fragments of following Tudor domains were cloned into pET28-MHL vector: SMN (aa 82–147), UHRF1 (aa 126–285), SMNDC1 (aa 53–130), TDRD3 (aa 554–611), SND1 (aa 650–910), TDRD2 (aa 327–420), FXR1 (aa 2–132), PHF1 (aa 28–87), SGF29 (aa 115–293), JMJD2A (aa 897–1101), 53BP1 (aa 1483–1606), SETDB1 (aa 190–410), LBR (aa 1–67), ZGPAT (aa 120–271). The coding regions of chromodomain of CBX7 (aa 8–62), PWWP domain of DNMT3A (aa 275–417), WD40 repeats of WDR5 (aa 24–334) and CW domain of ZCWPW2 (aa 21–78) were also subcloned into pET28-MHL vector to generate N-terminally His-tagged fusion protein. The MBT repeats of L3MBTL1 (aa 200–522) and L3MBTL2 (aa 170–625) were subcloned into pET28GST-LIC vector to generate N-terminally GST-His-tagged fusion protein. All the plasmids were generated by ligase independent cloning (Vazyme Biotech, C112 or ABclonal Technology, RK21020). […] The proteins were further purified by Superdex75 or Superdex200 gel-filtration column (GE Healthcare) in a buffer containing 20 mM Tris-HCl, pH 7.5, 150 mM NaCl and 1 mM DTT. For crystallization experiments, purified proteins were concentrated to 18 mg/mL for SMN, 23 mg/mL for UHRF1 and 10 mg/mL for TDRD3 in the gel-filtration buffer. All the mutations were introduced with the QuikChange II XL site-directed mutagenesis kit (Stratagene, 200522) and confirmed by DNA sequencing. Mutant proteins were also expressed in E. coli BL21 (DE3) Codon plus RIL and purified using the same procedures described above. The molecular weight of all protein samples was measured by mass spectrometry.
For the ITC measurement, the concentrated proteins were diluted into 20 mM Tris-HCl, pH 7.5, 150 mM NaCl (ITC buffer); the lyophilized compounds were dissolved in the same buffer, and the pH value was adjusted by adding 2 M NaOH or 2 M HCl. The compounds that could not be dissolved in the ITC buffer were dissolved in DMSO with the accessible highest concentration. Compound concentrations were calculated from the mass and the volume of the solvent. For the ITC assay with compound dissolved in DMSO, the protein was diluted by ITC buffer containing same final concentration of DMSO. All measurements were performed in duplicate at 25 °C, using a VP-ITC (MicroCal, Inc.), an iTC-200 (MicroCal, Inc.), or a Nano-ITC (TA, Inc.) microcalorimeter. The protein with a concentration of 50–100 μM was placed in the cell chamber, and the compounds with a concentration of 0.5–2 mM in syringe was injected in 25, 20, or 20 successive injections with a spacing of 180, 150, or 120 s for VP-ITC, iTC-200, or Nano-ITC, respectively, as previously described[30]–[32]. iTC-200 or Nano-ITC data were consistent with those from the VP-ITC instrument, based on ITC results of SMN-compound 1 detected by using all the instruments. Control experiments were performed under identical conditions to determine the heat signals that arise from injection of the compounds into the buffer. Data were fitted using the single-site binding model within the Origin software 7.0 package (MicroCal, Inc.) or the independent model within the Nano-Analyze software package (TA, Inc.).

[4] = target: T2, mCherry-SMN (Homo sapiens, UniProt Q16637); experiment: Fluorescence colocalization in U2OS cells, mCherry-SMN WT; type: cell-based; details: 10 μM, 24 h
T2 construct: the coding DNAs of full-length SMN, SND1 and TDRD3 were cloned into mCherry2-C1 or GFP-C1 vector; expressed in transfected cells; host or cells: U2OS
T2 sequence (Q16637 whole entry): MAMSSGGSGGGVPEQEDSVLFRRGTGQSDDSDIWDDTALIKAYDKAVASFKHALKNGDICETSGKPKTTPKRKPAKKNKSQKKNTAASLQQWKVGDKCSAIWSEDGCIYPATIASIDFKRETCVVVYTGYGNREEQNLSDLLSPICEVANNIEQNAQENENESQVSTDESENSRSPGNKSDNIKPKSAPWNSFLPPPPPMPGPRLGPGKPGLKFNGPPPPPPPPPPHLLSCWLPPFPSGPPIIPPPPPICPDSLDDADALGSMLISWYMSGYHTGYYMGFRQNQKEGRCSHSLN
Method: as §1

[5] = target: T3, SMN (Homo sapiens, UniProt Q16637); details: physiological ligand; read-out: binding affinity (Kd) to SMN; cited from earlier work
T3 construct: endogenous in cells; host or cells: U2OS
T3 sequence (Q16637 whole entry): as above

| fluorescence signal on addition of SMN Tudor domain protein [1] | Kd [3] | colocalization with mCherry-SMN [4] | Compound | colocalization with mCherry-SMN cage mutant [2] | Kd [5] |
| --- | --- | --- | --- | --- | --- |
| enhanced | 22 ± 1 µM | colocalized | N#C/C(=C\c1cc2c3c(c1)CCCN3CCC2)C(=O)NCCNC(=O)Cn1c2c(c(=N)c3c1CCC3)CCC2 [CCVJ-Cmpd 1] | not observed |  |
|  |  |  | CN=C(NC)NCCC[C@H](N)C(=O)O [symmetric dimethylarginine] |  | 476 µM |
